Laboratory results taken from patent publication US20250388543A1, “HETEROARYL COMPOUNDS FOR THE TREATMENT OF PAIN” (VERTEX PHARMACEUTICALS INCORPORATED, priority 2022, published 2025).

Target: human NaV 1.8 (Homo sapiens, UniProt Q9Y5Y9)
Assay: E-VIPR Assay Detecting and Measuring NaV Inhibition Properties
Assay type: cell-based
Conditions: HEK cells expressing a truncated form of human NaV 1.8 with full channel activity; electrical stimulation, membrane-potential FRET dyes; 30 minutes compound incubation; read-out: measured IC50 value in the E-VIPR Assay
Text: E-VIPR Assay Detecting and Measuring NaV Inhibition Properties
Sodium ion channels are voltage-dependent proteins that can be activated by inducing membrane voltage changes by applying electric fields. The electrical stimulation instrument and methods of use, referred to as E-VIPR, are described in International Publication No. WO 2002/008748 A3 and C.-J. Huang et al. Characterization of voltage-gated sodium channel blockers by electrical stimulation and fluorescence detection of membrane potential, 24 Nature Biotech. 439-46 (2006), both of which are incorporated by reference in their entirety. The instrument comprises a microtiter plate handler, an optical system for exciting the coumarin dye while simultaneously recording the coumarin and oxonol emissions, a waveform generator, a current- or voltage-controlled amplifier, and parallel electrode pairs that are inserted into assay plate wells. Under integrated computer control, this instrument passes user-programmed electrical stimulus protocols to cells within the wells of the microtiter plate.
16-20 hours prior to running the assay on E-VIPR, HEK cells expressing a truncated form of human NaV 1.8 with full channel activity were seeded into microtiter 384-well plates, pre-coated with matrigel, at a density of 25,000 cells per well. 2.5-5% KIR2.1 BacMam virus was added to the final cell suspension before seeding into cell plates. HEK cells were grown in Dulbecco's Modified Eagle's Medium (DMEM) supplemented with 10% FBS (Fetal Bovine Serum, qualified; Sigma #F4135), 1% NEAA (Non-Essential Amino Acids, Gibco #11140), 1% HEPES (Gibco #15630), 1% Pen-Strep (Penicillin-Streptomycin; Gibco #15140) and 5 μg/ml Blasticidin (Gibco #R210-01). Cells were expanded in 5-layer CellSTACK culture chambers or cell culture flasks with vented caps, with 90-95% humidity and 5% CO2.
Reagents and Stock Solutions:
100 mg/mL Pluronic F-127 (Sigma #P2443), in dry DMSO
Compound Plates: Corning 384-well Polypropylene Round Bottom #3656
Cell Plates: 384-well tissue culture treated plates (Greiner #781091-2B)
2.5-5% KIR 2.1 Bacmam virus (produced in-house), prepared as described in Section 3.3 of J. A. Fornwald et al., Gene Expression in Mammalian Cells Using BacMam, a Modified Baculovirus System, 1350 Methods in Molecular Biology 95-116 (2016), the entire contents of which are incorporated by reference. The concentration used can be dependent on viral titer of each batch.
5 mM DiSBAC6(3), a voltage sensitive oxonol acceptor (CAS number 169211-44-3; 5-[3-(1,3-dihexylhexahydro-4,6-dioxo-2-thioxo-5-pyrimidinyl)-2-propen-1-ylidene]-1,3-dihexyldihydro-2-thioxo-4,6(1H,5H)-pyrimidinedione), in dry DMSO. The preparation of DiSBAC6(3) is analogous to that of DiSBAC4(3) as described in Voltage Sensing by Fluorescence Resonance Energy Transfer in Single Cells, Gonzalez, J. E. and Tsien, R. Y. (1995) Biophys. J. 69, 1272-1280.
5 mM CC2-DMPE, a commercially available membrane-bound coumarin phospholipid FRET donor (ThermoFisher Scientific catalog number K1017, CAS number 393782-57-5; tetradecanoic acid, 1,1′-[(1R)-1-[8-(6-chloro-7-hydroxy-2-oxo-2H-1-benzopyran-3-yl)-3-hydroxy-3-oxido-8-oxo-2,4-dioxa-7-aza-3-phosphaoct-1-yl]-1,2-ethanediyl]ester) was prepared in dry DMSO. See also, Improved indicators of cell membrane potential that use fluorescence resonance energy transfer, Gonzalez, J. E. and Tsien, R. Y. (1997) Chem. Biol. 4, 269-277.
Voltage Assay Background Suppression Compound (VABSC-1) is prepared in H2O (89-363 mM, range used to maintain solubility)
Human Serum (HS, Millipore #S1P1-01KL, or Sigma SLBR5469V and SLBR5470V as a 50%/50% mixture, for 25% assay final concentration)
Sodium Chloride 160 mM (9.35 g/L), Potassium Chloride, 4.5 mM (0.335 g/L), Glucose 10 mM (1.8 g/L), Magnesium Chloride (Anhydrous) 1 mM (0.095 g/L), Calcium Chloride 2 mM (0.222 g/L), HEPES 10 mM (2.38 g/L) in water. […]

Sequence of human NaV 1.8 (Q9Y5Y9 126-1722 limits assumed): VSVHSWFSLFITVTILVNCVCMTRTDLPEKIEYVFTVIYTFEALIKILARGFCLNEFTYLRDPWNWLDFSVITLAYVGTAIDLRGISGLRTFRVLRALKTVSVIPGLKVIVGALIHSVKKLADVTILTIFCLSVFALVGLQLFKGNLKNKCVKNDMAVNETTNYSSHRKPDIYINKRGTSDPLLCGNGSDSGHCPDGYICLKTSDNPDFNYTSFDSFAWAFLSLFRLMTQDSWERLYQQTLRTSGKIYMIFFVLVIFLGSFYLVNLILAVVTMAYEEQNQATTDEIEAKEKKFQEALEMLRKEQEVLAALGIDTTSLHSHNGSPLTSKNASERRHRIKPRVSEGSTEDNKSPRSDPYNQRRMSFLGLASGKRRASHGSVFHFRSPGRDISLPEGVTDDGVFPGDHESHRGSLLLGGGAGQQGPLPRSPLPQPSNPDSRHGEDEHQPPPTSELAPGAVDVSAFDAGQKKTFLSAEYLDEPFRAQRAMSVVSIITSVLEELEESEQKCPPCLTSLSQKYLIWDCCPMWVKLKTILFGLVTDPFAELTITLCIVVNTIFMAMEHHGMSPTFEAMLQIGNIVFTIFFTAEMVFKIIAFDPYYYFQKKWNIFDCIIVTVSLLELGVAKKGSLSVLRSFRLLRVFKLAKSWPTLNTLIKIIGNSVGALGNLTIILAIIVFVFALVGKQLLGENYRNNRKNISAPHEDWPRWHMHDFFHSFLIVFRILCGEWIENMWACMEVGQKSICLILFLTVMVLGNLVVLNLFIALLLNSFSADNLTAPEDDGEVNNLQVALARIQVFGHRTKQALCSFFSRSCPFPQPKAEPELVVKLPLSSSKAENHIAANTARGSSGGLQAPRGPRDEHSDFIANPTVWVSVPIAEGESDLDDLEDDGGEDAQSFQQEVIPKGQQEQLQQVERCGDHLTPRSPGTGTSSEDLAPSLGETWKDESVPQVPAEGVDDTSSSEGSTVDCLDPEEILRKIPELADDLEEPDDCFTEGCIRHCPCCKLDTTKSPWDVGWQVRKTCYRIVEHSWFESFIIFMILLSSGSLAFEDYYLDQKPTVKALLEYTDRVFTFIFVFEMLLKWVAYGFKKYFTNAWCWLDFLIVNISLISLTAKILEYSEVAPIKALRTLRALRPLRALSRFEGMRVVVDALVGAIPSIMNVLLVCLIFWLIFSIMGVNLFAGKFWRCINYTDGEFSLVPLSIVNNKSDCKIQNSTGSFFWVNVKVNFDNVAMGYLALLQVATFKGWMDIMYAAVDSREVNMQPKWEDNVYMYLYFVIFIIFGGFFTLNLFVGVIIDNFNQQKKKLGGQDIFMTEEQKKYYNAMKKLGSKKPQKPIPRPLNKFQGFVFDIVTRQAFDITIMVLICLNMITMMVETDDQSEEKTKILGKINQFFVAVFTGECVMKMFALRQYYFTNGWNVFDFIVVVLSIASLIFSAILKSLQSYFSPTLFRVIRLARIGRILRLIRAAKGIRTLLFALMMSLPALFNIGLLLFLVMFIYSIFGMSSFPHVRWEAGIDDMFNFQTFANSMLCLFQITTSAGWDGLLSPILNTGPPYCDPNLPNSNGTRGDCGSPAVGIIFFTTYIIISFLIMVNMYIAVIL

Row | SMILES | IC50
1 | Cc1c(Oc2ncc(C(F)(F)F)c(C)c2-c2cc(=O)c(C(N)=O)c[nH]2)ccc(F)c1F [Compound 310, 6-[2-(3,4-difluoro-2-methyl-phenoxy)-4-methyl-5-(trifluoromethyl)-3-pyridyl]-4-oxo-1H-pyridine-3-carboxamide] | 500 to 2000 nM
2 | Cc1cc(=O)cc(-c2cc(C(F)(F)F)cnc2N2CCCC(F)(F)CC2)[nH]1 [Compound 156, 2-[2-(4,4-difluoroazepan-1-yl)-5-(trifluoromethyl)-3-pyridyl]-6-methyl-1H-pyridin-4-one] | 500 to 2000 nM
3 | Cc1cc(=O)cc(-c2ccc(C(F)(F)F)cc2C2CCC(F)(F)CC2)[nH]1 [Compound 325, 2-[2-(4,4-difluorocyclohexyl)-4-(trifluoromethyl)phenyl]-6-methyl-1H-pyridin-4-one] | 500 to 2000 nM
4 | Cc1cc(=O)cc(-c2ccc(C(C)(C)C)cc2OCC2CC2(F)F)[nH]1 (stereo not shown) [Compound 136] | 2000 to 5000 nM
5 | Cc1cc(=O)cc(-c2cc3ccccc3nc2OCc2ccccc2)[nH]1 [Compound 105, 2-(2-benzyloxy-3-quinolyl)-6-methyl-1H-pyridin-4-one] | ≥ 5000 nM
6 | Cc1[nH]c(-c2cc(C(F)(F)F)ncc2C2CCC(C(F)(F)F)CC2)cc(=O)c1C (stereo not shown) [Compound 142, 2,3-dimethyl-6-[2-(trifluoromethyl)-5-[4-(trifluoromethyl)cyclohexyl]-4-pyridyl]-1H-pyridin-4-one] | 500 to 2000 nM
7 | Cc1cc(=O)cc(-c2ccc(C(F)(F)F)cc2C2=CCC(F)(F)CC2)[nH]1 [Compound 324, 2-[2-(4,4-difluorocyclohexen-1-yl)-4-(trifluoromethyl)phenyl]-6-methyl-1H-pyridin-4-one] | ≥ 5000 nM

Continued, values first:

Row | IC50 | SMILES
8 | 2000 to 5000 nM | CCOC(=O)c1c(-c2cc3ccccc3nc2N2CCC[C@H](OC)C2)[nH]c(C)c(OC)c1=O [Compound 231, ethyl 5-methoxy-2-[2-[(3S)-3-methoxy-1-piperidyl]-3-quinolyl]-6-methyl-4-oxo-1H-pyridine-3-carboxylate]
9 | 500 to 2000 nM | CCOC(=O)c1c(-c2cc3ccccc3nc2N2CCC(C)(C)C2)[nH]c(C)c(OC)c1=O [Compound 238, ethyl 2-[2-(3,3-dimethylpyrrolidin-1-yl)-3-quinolyl]-5-methoxy-6-methyl-4-oxo-1H-pyridine-3-carboxylate]
10 | 500 to 2000 nM | Cc1c(Oc2nc3ccccc3cc2-c2cc(=O)cc[nH]2)ccc(F)c1F [Compound 115, 2-[2-(3,4-difluoro-2-methyl-phenoxy)-3-quinolyl]-1H-pyridin-4-one]
11 | 2000 to 5000 nM | COC(=O)c1c(-c2cc(C(F)(F)F)ncc2N2CCCC(F)(F)CC2)[nH]c(C)c(C)c1=O [Compound 297, methyl 2-[5-(4,4-difluoroazepan-1-yl)-2-(trifluoromethyl)-4-pyridyl]-5,6-dimethyl-4-oxo-1H-pyridine-3-carboxylate]
12 | 500 to 2000 nM | Cc1cc(-c2[nH]c(C)c(C)c(=O)c2C(=O)O)c(N2CCCC(F)(F)CC2)nc1C(F)(F)F [Compound 284, 2-[2-(4,4-difluoroazepan-1-yl)-5-methyl-6-(trifluoromethyl)-3-pyridyl]-5,6-dimethyl-4-oxo-1H-pyridine-3-carboxylic acid]
13 | 2000 to 5000 nM | CCOC(=O)c1c(-c2cc3ccccc3nc2N2CCCOCC2)[nH]c(C)c(OC)c1=O [Compound 227, ethyl 5-methoxy-6-methyl-2-[2-(1,4-oxazepan-4-yl)-3-quinolyl]-4-oxo-1H-pyridine-3-carboxylate]
14 | 2000 to 5000 nM | CCOC(=O)c1c(-c2cc3ccccc3nc2N2CCC(F)(F)C2)[nH]c(C)c(OC)c1=O [Compound 242, ethyl 2-[2-(3,3-difluoropyrrolidin-1-yl)-3-quinolyl]-5-methoxy-6-methyl-4-oxo-1H-pyridine-3-carboxylate]
15 | 2000 to 5000 nM | Cc1cnc(N2CCCC(F)(F)CC2)c(-c2cc(=O)cc(C)[nH]2)c1 [Compound 320, 2-[2-(4,4-difluoroazepan-1-yl)-5-methyl-3-pyridyl]-6-methyl-1H-pyridin-4-one]
16 | ≥ 5000 nM | CCOC(=O)c1c(-c2cc3ccccc3nc2N2C[C@@H]3CCO[C@@H]3C2)[nH]c(C)c(OC)c1=O [Compound 228, ethyl 2-[2-[(3aS,6aS)-2,3,3a,4,6,6a-hexahydrofuro[2,3-c]pyrrol-5-yl]-3-quinolyl]-5-methoxy-6-methyl-4-oxo-1H-pyridine-3-carboxylate]
